Assay results from ChEMBL document CHEMBL1201862, “PubChem BioAssay data set” (2004).
Active and inactive are the calls of the source.

Tests used:
[1] = viability of HCT116 lacking mutant beta-catenin – cell-based, human colon tumor, dose response (AID 1045); type: functional;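 further: HCT116 colon tumor cells with beta catenin knocked out; cells exposed to compound for 60 hours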
[2] = viability of PTEN-deleted HCT116 cells – cell-based, HCT116 PTEN knockout, dose response (AID 1047); type: functional;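 further: HCT116 colon tumor cells with PTEN knocked out; cells exposed to compound for 60 hours before readout; potency for loss of cell viability measured by luminescence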
[3] = molecular target: Heat shock protein HSP 90-alpha (Homo sapiens, UniProt P07900); type: functional, organism-based
[4] = molecular target: T1, Heat shock factor protein 1 (Mus musculus, UniProt P38532); test: decrease of HSF1-responsive luciferase luminescence – cell-based, NIH3T3, dose retest, confirmation (AID 2382); type: functional;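 further: NIH3T3 fibroblasts with HSF1-driven luciferase reporter stressed by proteasome inhibitor MG132; luminescence from HSF1-driven luciferase expression after 8 hours of MG132 stress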
T1 sequence (P38532 whole entry): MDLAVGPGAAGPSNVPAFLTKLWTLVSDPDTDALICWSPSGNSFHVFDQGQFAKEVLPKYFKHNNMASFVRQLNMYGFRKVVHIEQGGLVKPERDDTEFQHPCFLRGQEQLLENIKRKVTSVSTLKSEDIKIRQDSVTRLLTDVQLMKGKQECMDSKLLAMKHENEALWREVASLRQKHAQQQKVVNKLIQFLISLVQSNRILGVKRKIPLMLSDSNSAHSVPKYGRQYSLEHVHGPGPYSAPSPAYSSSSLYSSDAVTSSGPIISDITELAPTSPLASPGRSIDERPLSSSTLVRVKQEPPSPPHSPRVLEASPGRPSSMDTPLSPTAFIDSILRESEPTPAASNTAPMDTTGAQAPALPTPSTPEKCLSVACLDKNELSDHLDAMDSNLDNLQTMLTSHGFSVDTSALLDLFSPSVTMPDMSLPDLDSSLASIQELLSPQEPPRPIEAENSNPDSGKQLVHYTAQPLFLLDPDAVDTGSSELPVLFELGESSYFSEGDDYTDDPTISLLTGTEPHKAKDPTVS

[5] = microbe, parasite or virus in culture; type: functional; conditions: Mycobacterium tuberculosis
[6] = molecular target: T2, Alkaline phosphatase, tissue-nonspecific isozyme (Homo sapiens, UniProt P05186); test: potency against alkaline phosphatase TNAP – biochemical, luminescent, dose response, SAR follow-up (AID 1056)
T2 sequence (P05186 whole entry): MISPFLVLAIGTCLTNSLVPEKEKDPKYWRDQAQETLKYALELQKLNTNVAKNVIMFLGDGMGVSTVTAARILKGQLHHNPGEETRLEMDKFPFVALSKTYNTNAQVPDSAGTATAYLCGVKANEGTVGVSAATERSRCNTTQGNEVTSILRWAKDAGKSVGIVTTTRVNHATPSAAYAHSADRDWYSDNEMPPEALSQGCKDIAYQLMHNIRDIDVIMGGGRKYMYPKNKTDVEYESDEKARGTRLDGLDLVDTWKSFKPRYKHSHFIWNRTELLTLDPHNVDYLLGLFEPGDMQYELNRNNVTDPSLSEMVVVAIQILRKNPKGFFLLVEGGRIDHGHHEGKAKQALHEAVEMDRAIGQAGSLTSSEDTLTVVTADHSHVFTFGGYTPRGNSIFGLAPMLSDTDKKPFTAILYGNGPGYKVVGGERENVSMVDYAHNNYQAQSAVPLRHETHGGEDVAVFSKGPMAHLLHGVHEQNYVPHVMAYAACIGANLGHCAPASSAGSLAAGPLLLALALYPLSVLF

Aminopeptidase N = molecular target: T3, Aminopeptidase N (Plasmodium falciparum FcB1/Columbia, UniProt O96935); test: malaria alanyl aminopeptidase activity blockers – biochemical, fluorogenic H-Leu-NHMec substrate, 1536-well (AID 1445); set-up: species or system Plasmodium falciparum 3D7, 3D7
T3 sequence (O96935 whole entry): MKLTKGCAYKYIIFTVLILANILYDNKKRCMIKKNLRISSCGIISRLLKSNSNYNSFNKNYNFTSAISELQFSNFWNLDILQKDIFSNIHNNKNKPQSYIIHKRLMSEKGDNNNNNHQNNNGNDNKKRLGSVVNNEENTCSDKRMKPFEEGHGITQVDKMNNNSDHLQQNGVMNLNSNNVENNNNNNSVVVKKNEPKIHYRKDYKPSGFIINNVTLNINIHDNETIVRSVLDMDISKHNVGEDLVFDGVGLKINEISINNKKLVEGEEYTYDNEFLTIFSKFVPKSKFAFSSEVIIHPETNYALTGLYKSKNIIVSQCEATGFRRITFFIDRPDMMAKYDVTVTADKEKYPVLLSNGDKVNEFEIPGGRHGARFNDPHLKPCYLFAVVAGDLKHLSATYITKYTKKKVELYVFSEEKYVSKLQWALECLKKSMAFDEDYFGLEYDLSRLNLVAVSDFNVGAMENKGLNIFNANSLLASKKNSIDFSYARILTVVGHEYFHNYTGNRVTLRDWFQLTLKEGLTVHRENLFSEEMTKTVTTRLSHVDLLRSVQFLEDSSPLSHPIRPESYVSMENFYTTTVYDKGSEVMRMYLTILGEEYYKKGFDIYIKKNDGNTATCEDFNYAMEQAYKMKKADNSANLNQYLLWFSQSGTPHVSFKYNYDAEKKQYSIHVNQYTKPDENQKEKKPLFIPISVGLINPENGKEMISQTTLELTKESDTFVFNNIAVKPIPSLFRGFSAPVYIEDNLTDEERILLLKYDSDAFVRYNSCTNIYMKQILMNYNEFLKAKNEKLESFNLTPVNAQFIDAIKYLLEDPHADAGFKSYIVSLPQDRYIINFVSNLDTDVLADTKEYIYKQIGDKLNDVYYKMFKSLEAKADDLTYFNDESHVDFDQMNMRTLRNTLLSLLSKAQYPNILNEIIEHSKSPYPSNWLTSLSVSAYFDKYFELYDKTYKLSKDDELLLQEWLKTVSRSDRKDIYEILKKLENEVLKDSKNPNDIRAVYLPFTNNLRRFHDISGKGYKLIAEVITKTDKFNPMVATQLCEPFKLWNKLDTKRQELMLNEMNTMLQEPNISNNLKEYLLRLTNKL

[7] = molecular target: Glyceraldehyde-3-phosphate dehydrogenase (Homo sapiens, UniProt P04406)
[8] = molecular target: T4, Histone-lysine N-methyltransferase NSD2 (Homo sapiens, UniProt O96028); type: biochemical
T4 sequence (O96028 whole entry): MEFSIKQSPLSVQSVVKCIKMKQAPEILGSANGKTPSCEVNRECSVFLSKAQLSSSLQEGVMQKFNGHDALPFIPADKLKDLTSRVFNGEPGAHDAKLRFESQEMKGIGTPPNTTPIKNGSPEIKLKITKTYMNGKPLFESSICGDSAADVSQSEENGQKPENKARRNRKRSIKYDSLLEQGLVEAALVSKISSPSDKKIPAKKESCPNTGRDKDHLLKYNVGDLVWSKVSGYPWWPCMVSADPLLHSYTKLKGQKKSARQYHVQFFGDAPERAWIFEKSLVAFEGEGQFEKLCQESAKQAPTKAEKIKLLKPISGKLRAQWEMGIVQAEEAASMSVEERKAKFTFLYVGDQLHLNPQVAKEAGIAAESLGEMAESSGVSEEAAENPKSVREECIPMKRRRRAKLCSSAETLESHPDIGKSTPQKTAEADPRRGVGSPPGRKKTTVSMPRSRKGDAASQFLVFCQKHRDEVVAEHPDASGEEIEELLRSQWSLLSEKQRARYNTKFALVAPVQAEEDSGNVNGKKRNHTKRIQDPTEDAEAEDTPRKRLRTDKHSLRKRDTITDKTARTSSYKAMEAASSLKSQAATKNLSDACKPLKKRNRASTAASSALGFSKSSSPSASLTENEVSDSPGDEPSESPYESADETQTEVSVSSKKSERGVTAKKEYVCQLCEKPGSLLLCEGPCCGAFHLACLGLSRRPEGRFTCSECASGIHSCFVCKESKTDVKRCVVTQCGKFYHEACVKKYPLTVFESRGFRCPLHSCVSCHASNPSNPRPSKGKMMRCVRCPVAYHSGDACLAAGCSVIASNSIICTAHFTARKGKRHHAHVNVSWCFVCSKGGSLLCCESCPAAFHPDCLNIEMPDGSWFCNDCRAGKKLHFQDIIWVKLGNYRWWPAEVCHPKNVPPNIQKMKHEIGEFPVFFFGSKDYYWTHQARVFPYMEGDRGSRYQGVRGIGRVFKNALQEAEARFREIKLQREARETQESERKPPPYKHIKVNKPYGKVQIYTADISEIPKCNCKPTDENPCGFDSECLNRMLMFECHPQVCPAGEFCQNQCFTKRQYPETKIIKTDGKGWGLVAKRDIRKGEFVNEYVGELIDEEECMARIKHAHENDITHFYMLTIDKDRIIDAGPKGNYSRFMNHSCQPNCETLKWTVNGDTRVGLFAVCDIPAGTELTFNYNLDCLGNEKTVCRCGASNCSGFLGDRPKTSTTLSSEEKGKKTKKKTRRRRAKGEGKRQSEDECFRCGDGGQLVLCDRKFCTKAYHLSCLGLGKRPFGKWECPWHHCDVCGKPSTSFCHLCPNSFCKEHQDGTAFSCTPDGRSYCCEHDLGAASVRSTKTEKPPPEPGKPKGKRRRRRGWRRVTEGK

Fatty acid synthase = Fatty acid synthase (Homo sapiens, UniProt P49327); test: inhibition of human FAS-TE enzyme activity – biochemical, kinetic fluorescence intensity, dose response (AID 624326); type: functional;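 further: rate of fluorescence rise from hydrolysis of a fluorogenic O-methyl fluorescein ester substrate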
Sequence of Fatty acid synthase (P49327 whole entry): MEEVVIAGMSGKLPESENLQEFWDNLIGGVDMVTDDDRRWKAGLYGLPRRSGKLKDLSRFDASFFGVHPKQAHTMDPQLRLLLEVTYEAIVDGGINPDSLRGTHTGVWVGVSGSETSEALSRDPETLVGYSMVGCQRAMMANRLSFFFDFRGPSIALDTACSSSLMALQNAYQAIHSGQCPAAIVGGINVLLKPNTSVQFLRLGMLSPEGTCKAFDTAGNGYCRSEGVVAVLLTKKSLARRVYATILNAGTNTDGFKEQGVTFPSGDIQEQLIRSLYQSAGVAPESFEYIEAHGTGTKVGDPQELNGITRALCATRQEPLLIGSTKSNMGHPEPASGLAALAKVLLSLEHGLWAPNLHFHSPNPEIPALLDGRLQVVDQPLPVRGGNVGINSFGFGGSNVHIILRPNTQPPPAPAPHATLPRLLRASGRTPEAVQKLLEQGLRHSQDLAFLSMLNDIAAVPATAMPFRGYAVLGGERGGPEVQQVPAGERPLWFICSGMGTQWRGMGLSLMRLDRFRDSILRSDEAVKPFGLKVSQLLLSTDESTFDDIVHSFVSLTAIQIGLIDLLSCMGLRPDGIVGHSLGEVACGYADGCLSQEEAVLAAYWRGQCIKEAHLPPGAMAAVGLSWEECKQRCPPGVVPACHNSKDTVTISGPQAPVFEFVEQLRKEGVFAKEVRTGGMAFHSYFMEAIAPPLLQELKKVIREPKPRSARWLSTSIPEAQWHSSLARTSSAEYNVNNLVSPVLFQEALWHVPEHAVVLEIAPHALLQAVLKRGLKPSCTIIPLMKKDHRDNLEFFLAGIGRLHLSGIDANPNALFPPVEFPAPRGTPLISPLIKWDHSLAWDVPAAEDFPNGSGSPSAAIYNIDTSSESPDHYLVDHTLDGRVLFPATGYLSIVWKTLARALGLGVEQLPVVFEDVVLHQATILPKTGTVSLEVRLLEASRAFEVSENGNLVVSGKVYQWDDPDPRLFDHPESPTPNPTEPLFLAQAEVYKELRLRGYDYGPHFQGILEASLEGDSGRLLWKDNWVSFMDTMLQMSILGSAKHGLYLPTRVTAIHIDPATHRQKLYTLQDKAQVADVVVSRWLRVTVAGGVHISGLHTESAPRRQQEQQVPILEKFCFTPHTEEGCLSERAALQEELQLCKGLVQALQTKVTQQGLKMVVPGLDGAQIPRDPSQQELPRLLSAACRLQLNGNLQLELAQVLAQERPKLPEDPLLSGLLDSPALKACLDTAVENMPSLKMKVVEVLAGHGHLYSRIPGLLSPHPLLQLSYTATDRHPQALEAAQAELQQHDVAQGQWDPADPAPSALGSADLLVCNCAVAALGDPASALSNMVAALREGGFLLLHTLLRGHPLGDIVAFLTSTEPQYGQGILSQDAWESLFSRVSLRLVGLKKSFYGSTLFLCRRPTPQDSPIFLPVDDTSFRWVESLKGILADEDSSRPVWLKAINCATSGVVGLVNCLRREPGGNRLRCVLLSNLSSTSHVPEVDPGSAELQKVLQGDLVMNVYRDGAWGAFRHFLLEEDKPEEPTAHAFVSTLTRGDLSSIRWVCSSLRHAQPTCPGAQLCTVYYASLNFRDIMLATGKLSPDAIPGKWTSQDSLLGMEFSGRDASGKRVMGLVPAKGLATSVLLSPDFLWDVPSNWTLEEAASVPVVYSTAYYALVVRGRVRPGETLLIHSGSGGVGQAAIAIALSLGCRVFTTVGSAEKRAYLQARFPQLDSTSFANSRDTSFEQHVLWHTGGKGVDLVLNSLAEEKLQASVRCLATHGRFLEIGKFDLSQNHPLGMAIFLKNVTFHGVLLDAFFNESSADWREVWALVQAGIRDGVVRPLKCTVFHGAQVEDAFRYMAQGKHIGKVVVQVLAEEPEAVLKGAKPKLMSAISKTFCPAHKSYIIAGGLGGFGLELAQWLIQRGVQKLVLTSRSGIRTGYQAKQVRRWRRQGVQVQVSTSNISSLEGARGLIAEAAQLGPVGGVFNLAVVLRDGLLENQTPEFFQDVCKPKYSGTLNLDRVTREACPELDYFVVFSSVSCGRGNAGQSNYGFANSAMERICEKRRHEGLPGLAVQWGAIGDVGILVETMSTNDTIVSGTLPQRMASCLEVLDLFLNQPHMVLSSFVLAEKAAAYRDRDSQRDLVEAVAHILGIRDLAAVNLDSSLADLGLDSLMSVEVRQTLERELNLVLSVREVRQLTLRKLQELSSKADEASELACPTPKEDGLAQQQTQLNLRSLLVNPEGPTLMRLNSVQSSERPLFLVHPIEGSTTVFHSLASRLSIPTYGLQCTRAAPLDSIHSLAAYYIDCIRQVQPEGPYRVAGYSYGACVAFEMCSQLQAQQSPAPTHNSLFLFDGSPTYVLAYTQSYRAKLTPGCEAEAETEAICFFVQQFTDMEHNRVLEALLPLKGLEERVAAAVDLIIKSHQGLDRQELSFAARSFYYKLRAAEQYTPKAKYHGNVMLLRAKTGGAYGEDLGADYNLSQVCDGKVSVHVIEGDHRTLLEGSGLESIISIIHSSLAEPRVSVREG

Sequence of Glyceraldehyde-3-phosphate dehydrogenase (P04406 whole entry): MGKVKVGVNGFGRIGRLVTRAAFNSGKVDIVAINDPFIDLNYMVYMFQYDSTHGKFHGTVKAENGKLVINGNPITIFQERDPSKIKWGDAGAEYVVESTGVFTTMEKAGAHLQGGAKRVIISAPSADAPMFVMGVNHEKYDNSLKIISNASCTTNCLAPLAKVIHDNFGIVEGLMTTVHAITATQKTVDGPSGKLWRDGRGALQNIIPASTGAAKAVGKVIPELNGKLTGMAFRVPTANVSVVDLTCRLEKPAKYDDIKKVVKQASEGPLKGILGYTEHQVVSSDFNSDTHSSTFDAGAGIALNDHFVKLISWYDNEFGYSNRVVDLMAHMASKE

With `Cc1nn(-c2ccccc2)c2sc(C(=O)NNC(=O)COc3cccc4ccccc34)cc12` the EC50 [1] was 19.3 µM (active) and the EC50 [2] was 19.2 µM (active).
In the case of `O=C(c1ccc(-c2ccccc2)c(F)c1)C1CCCN(C(=O)c2cncs2)C1` (centres undefined), the AC50 [3] is reported as 7.61 µM (active), the EC50 [4] is reported as > 195 µM (not active) and the CC50 [5] is reported as 32.9 µM (active).
In the case of `O=C(Cn1ccnc1)c1ccc(O)c(O)c1`, the IC50 [6] is reported as > 100 µM (inactive).
In the case of `Cc1ccc(-n2nnnc2SCC(=O)NC(C(=O)O)(c2ccccc2)c2ccccc2)cc1C`, the IC50 (Aminopeptidase N) is reported as 29.2 µM (active).
For `Cc1cc(N2C(=O)c3ccc(C(=O)NCc4ccccc4)cc3C2=O)no1`, the IC50 (Aminopeptidase N) was 18.6 µM (active).
With `CNC(=O)c1n[nH]c2c1COc1ccccc1-2` the IC50 [6] was > 100 µM (inactive) and the IC50 [7] was > 100 µM (not active).
In the case of `Cc1ccc(C)c(CSc2ncccc2C(=O)O)c1`, the IC50 (Aminopeptidase N) is reported as 77.7 µM (active).
For `CCOC(=O)c1[nH]c(CSc2nnc(-c3ccc(OC)cc3)o2)c(C(=O)OCC)c1C`, the EC50 [1] was 21.6 µM (active) and the EC50 [2] was 20.8 µM (active).
In the case of `CCOCCCNC1=C(Cl)C(=O)c2ccccc2C1=O`, the AC50 [3] is reported as 10.6 µM (active) and the AC50 [8] is reported as 12.3 µM (active).
For `Cc1ccccc1N=C(S)NC(NC(=O)COc1ccccc1)C(Cl)(Cl)Cl` (centres undefined), the EC50 [1] was 31 µM (active) and the EC50 [2] was 27.2 µM (active).
For `CS(=O)(=O)c1sc2nc(-c3cccs3)cc(-c3ccccc3)c2c1N`, the IC50 (Aminopeptidase N) was 81.1 µM (active).
For `Cc1cc(N2CCN(c3cccc(C)c3C)CC2)nc(-c2ccccc2)n1`, the AC50 [3] was 1.66 µM (active).
In the case of `O=S(=O)(c1ccc2ccccc2c1)n1ccc2ccccc21`, the IC50 [6] is reported as > 100 µM (inactive) and the IC50 [7] is reported as > 100 µM (not active).
With `CC1(C(=O)NS(=O)(=O)c2ccc(C#N)cc2)CCN1C(=O)c1ccc(C2CCCCC2)cc1` (centres undefined) the IC50 (Fatty acid synthase) was 5.24 µM (active).
With `Cc1ccc(-c2c(C)sc3ncn(CC(=O)N4CCOCC4)c(=O)c23)cc1C` the IC50 (Aminopeptidase N) was 12.4 µM (active).
With `NCc1cc(-c2cccnc2)no1` the IC50 [6] was > 100 µM (inactive) and the IC50 [7] was > 100 µM (not active).
For `c1cncc(-c2cc[nH]n2)c1`, the IC50 [6] was > 100 µM (inactive) and the IC50 [7] was > 100 µM (not active).
For `CCOC(=O)c1[nH]cnc1C(=O)Nc1ccncc1`, the IC50 (Aminopeptidase N) was 26 µM (active).
For `COC(=O)Nc1ccc2c(c1)N(C(=O)CCN(C)C)c1ccccc1CC2`, the AC50 [8] was > 20 µM (inactive).
